One assay concerns subcutaneous arteries. As to the kind of experiment: Ex-vivo relaxation response in subcutaneous arteries on pressure myograph. Also on record: species or system human. Conditions: arteries from normal pregnant women, concentration response (FIG. 2). An excerpt: (§1) To evaluate acute dilatory responses to estetrol in human vasculature ex-vivo, the following study has been conducted. Myometrial arteries and subcutaneous arteries (diameter: 220 μm; length: 2-3 mm) were dissected from normal pregnant women undergoing planned caesarian section. Myometrial arteries are present in the uterus and are branches from the arteria uterina. Cigarette smokers and women with hypertension, diabetes mellitus, clinical manifestations of arteriosclerosis (CHD, peripheral artery disease, cerebrovascular disease), venous thromboembolic disease, liver disorders, unexplained vaginal bleeding, and personal or family history of breast cancer were excluded. None had received HRT, other steroid hormones, or any medication known to affect lipoprotein metabolism or blood pressure. The dissected arteries were mounted on a pressure myograph (LSI, USA). The organ bath was perfused (7 ml/min) with PSS (mM: NaCl 119, KCl 4.7, CaCl2 2.5, MgSO4 1.17, NaHCO3 25, KH2PO4 1.18, EDTA 0.026 and glucose 5.5; pH 7.4, 37° C., gassed with 5% CO2 in O2). […] FIG. 2 depicts the response curve of estetrol and PPT in the subcutaneous arteries. Again, the number of subjects is mentioned in parenthesis.

The next assay relates to Myometrial arteries. As to the kind of experiment: Ex-vivo relaxation response in myometrial arteries on pressure myograph. Also noted: species or system human. Conditions: for relaxation in myometrial arteries: arteries from normal pregnant women, pressure myograph, concentration response (FIG. 1).
Excerpt: as §1, with “FIG. 1” for “FIG. 2”, “the myometrial” for “the subcutaneous”, “arteries. The” for “arteries. Again, the”

Each structure is given as a SMILES string.

Turning to `C[C@]12CC[C@@H]3c4ccc(O)cc4CC[C@H]3[C@@H]1[C@@H](O)[C@@H](O)[C@@H]2O` [estetrol, 1,3,5 (10)-estratrien-3,15α,16α,17β-tetrol], the “relaxation in subcutaneous arteries” value in the assay on subcutaneous arteries is “capable of inducing relaxation”. Further, in the assay with Myometrial arteries, the “relaxation in myometrial arteries” value was “capable of inducing relaxation”. Further, the “selective effect: relaxation in myometrial arteries compared to subcutaneous arteries” value in the assay with Myometrial arteries (comparison of FIGS. 1 and 2) is “more pronounced in the myometrial arteries compared to the subcutaneous arteries”.

As to `CCCc1c(-c2ccc(O)cc2)nn(-c2ccc(O)cc2)c1-c1ccc(O)cc1` [PPT, [1H]-pyrazole-1,3,5-tri-trisphenol, reference compound], the “relaxation in subcutaneous arteries” value in the assay with subcutaneous arteries is on record as “capable of inducing relaxation”. For the same compound, in the assay with Myometrial arteries, the “relaxation in myometrial arteries” value is on record as “capable of inducing relaxation”.

The record behind these values is patent publication US8518923B2, “Treatment or prevention of hypertensive disorders of pregnancy or fetal growth retardation” (Pantarhei Bioscience B.V., priority 2007, dated 2013).
